Where a name gives a salt, the structure may show the parent alone. Read-outs that look alike come from different tables or passages of the source.
Experiments:
[1] = Dynamic Vapor Sorption (DVS) hygroscopicity; format: physicochemical; conditions: from 0 to 90% RH at 25° C.
Procedure: Dynamic Vapor Sorption (DVS) was used to study hygroscopicity on Model Q5000 SA (TA Instruments, New Castle, DE). A sample (1-10 mg) was placed in an aluminum pan and loaded on the sample side of the twin pan balance. The water sorption and desorption were studied as a function of relative humidity (RH) at 25° C. in 10% RH increments from 0% RH to 90% RH and then back to 0%. […] Data analysis was performed using Universal Analysis 2000 Version 4.7A (TA Instruments, New Castle, DE).

[2] = Atropisomer interconversion detected by 19F-NMR in deuterated DMSO; format: physicochemical; conditions: deuterated DMSO solution, deuterated DMSO at 25° C.
Procedure: Compound 1 has two restricted rotational axes, resulting in 4 atropisomers (see FIG. 1) that may be detected by ^19F-NMR.
^19F Nuclear Magnetic Resonance spectra were collected on a Varian 400-MR 400 MHz instrument with 7620AS sample changer. Some of the parameters were adjusted as follows: number of scans: 1; spin: 0 (off); steady state scans: 0 (off). Samples were prepared as a solution of 20 mg in 0.75 mL of dimethyl sulfoxide-d6. The time from solvent addition to end of data acquisition should be ≤5 minutes. Off-line analysis was conducted using MNova software.

| Structure (SMILES) | water uptake (DVS) [1] | half-life at 26.7 mg/mL ([2]; read-out: half-life of conversion from the major to the minor atropisomer for the biaryl rotation (converted)) [h] | half-life at 26.7 mg/mL ([2]; read-out: half-life of interconversion at the 2nd rotational axis) [h] |
| --- | --- | --- | --- |
| Cc1cc(CC(=O)O)c(C(C)(C)CC(=O)N(c2nn(CC(F)(F)F)c3c(-c4ccc(C#CC(C)(C)S(C)(=O)=O)nc4[C@H](Cc4cc(F)cc(F)c4)NC(=O)Cn4nc(C(F)(F)F)c5c4C(F)(F)[C@@H]4C[C@H]54)ccc(Cl)c23)S(C)(=O)=O)c(OP(=O)(O)O)c1 [Compound 1 maleate] | about 2.5% |  |  |
| Cc1cc(CC(=O)O)c(C(C)(C)CC(=O)N(c2nn(CC(F)(F)F)c3c(-c4ccc(C#CC(C)(C)S(C)(=O)=O)nc4[C@H](Cc4cc(F)cc(F)c4)NC(=O)Cn4nc(C(F)(F)F)c5c4C(F)(F)[C@@H]4C[C@H]54)ccc(Cl)c23)S(C)(=O)=O)c(OP(=O)(O)O)c1 [Compound 1 succinate] | about 1.7% |  |  |
| Cc1cc(CC(=O)O)c(C(C)(C)CC(=O)N(c2nn(CC(F)(F)F)c3c(-c4ccc(C#CC(C)(C)S(C)(=O)=O)nc4[C@H](Cc4cc(F)cc(F)c4)NC(=O)Cn4nc(C(F)(F)F)c5c4C(F)(F)[C@@H]4C[C@H]54)ccc(Cl)c23)S(C)(=O)=O)c(OP(=O)(O)O)c1 [Compound 1, 2-(2-(4-(N-(4-chloro-7-(2-((S)-1-(2-((3bS,4aR)-5,5-difluoro-3-(trifluoromethyl)-3b,4,4a,5-tetrahydro-1H-cyclopropa[3,4]cyclopenta[1,2-c]pyrazol-1-yl)acetamido)-2-(3,5-difluorophenyl)ethyl)-6-(3-methyl-3-(methylsulfonyl)but-1-yn-1-yl)pyridin-3-yl)-1-(2,2,2-trifluoroethyl)-1H-indazol-3-yl)methylsulfonamido)-2-methyl-4-oxobutan-2-yl)-5-methyl-3-(phosphonooxy)phenyl)acetic acid] |  | ~71.6 | ~0.117 |
| Cc1cc(CC(=O)O)c(C(C)(C)CC(=O)N(c2nn(CC(F)(F)F)c3c(-c4ccc(C#CC(C)(C)S(C)(=O)=O)nc4[C@H](Cc4cc(F)cc(F)c4)NC(=O)Cn4nc(C(F)(F)F)c5c4C(F)(F)[C@@H]4C[C@H]54)ccc(Cl)c23)S(C)(=O)=O)c(OP(=O)(O)O)c1 [Compound 1, Material A] | about 4.6% |  |  |
| Cc1cc(CC(=O)O)c(C(C)(C)CC(=O)N(c2nn(CC(F)(F)F)c3c(-c4ccc(C#CC(C)(C)S(C)(=O)=O)nc4[C@H](Cc4cc(F)cc(F)c4)NC(=O)Cn4nc(C(F)(F)F)c5c4C(F)(F)[C@@H]4C[C@H]54)ccc(Cl)c23)S(C)(=O)=O)c(OP(=O)(O)O)c1 [Compound 1, crystalline Form III] | about 1.6% |  |  |
| Cc1cc(CC(=O)O)c(C(C)(C)CC(=O)N(c2nn(CC(F)(F)F)c3c(-c4ccc(C#CC(C)(C)S(C)(=O)=O)nc4[C@H](Cc4cc(F)cc(F)c4)NC(=O)Cn4nc(C(F)(F)F)c5c4C(F)(F)[C@@H]4C[C@H]54)ccc(Cl)c23)S(C)(=O)=O)c(OP(=O)(O)O)c1 [Compound 1, crystalline Form II] | about 1% |  |  |
| Cc1cc(CC(=O)O)c(C(C)(C)CC(=O)N(c2nn(CC(F)(F)F)c3c(-c4ccc(C#CC(C)(C)S(C)(=O)=O)nc4[C@H](Cc4cc(F)cc(F)c4)NC(=O)Cn4nc(C(F)(F)F)c5c4C(F)(F)[C@@H]4C[C@H]54)ccc(Cl)c23)S(C)(=O)=O)c(OP(=O)(O)O)c1 [Compound 1, crystalline Form I] | about 4% |  |  |
| Cc1cc(CC(=O)OC(C)(C)C)c(C(C)(C)CC(=O)N(c2nn(CC(F)(F)F)c3c(-c4ccc(C#CC(C)(C)S(C)(=O)=O)nc4[C@H](Cc4cc(F)cc(F)c4)NC(=O)Cn4nc(C(F)(F)F)c5c4C(F)(F)[C@@H]4C[C@H]54)ccc(Cl)c23)S(C)(=O)=O)c(OP(=O)(OC(C)(C)C)OC(C)(C)C)c1 [Compound 2, crystalline Form I] | about 2.7% |  |  |

Reference: patent US20250011352A1, “SOLID FORMS” (priority 2023, published 2025)
